{"source": "patent US20230165242A1", "about": "“RODENTICIDAL BAIT AND METHOD OF CONTROLLING TARGET HARMFUL RODENTS” (priority 2020, published 2023)", "key": {"[1]": {"system": "warfarin-sensitive male OFA-Sprague-Dawley rats", "experiment": "Prothrombin level, Quick's time (bromadiolone / cholecalciferol gavage)", "assay_type": "in vivo, rat", "description": "Warfarin-sensitive male OFA-Sprague-Dawley rats (Charles River, L′Arbresles, France) are fed by gavage for 3 consecutive days with a gavage solution containing bromadiolone (LIPHATECH, France) and cholecalciferol (Sigma-Aldrich, France) in a solvent consisting of 95% (v/v) of oil and 5% (v/v) of DMSO. During this period of gavage, the rats are fed with a conventional solid feed and water in unlimited amounts. The concentrations of bromadiolone and cholecalciferol in the gavage solution are 0.1 g/kg (100 ppm) and 7.5 g/kg (7500 ppm) respectively. Each rat receives daily a volume of gavage solution calculated to correspond to 1 mL of gavage solution per kilogram of body weight. The OFA-Sprague-Dawley rats in two control groups are fed by gavage in the same conditions with gavage solutions containing bromadiolone (alone) at a concentration of 100 ppm or cholecalciferol (alone) at a concentration of 7500 ppm, respectively. 24 hours after the last gavage, a volume of blood is taken from each rat by intracardiac puncture and placed in a specimen tube containing sodium citrate. The animals are euthanized after puncture and the plasma is prepared by centrifugation. Quick's time (or clotting time) is evaluated on the plasma supplemented with sodium citrate, then decalcified and recalcified in the presence of calcium thromboplastin. Quick's time is evaluated by means of an optical device for clotting analysis (Option 2plus, Bio Mèrieux®). The results are presented [FIG. 2]. The average Quick's time measured on the plasma from the rats fed by gavage with bromadiolone (bar “B”) is 12.4 seconds (±1.8), the average Quick's time measured on the plasma from the rats fed by gavage with cholecalciferol (bar “C”) is 12.4 seconds (±0.9) and the average Quick's time measured on the plasma from the rats fed by gavage with the composition comprising bromadiolone and cholecalciferol (bar “D”) is 14.1 seconds (±2.7). The differences in values of Quick's time measured between the three groups of rats are not significant. The rats in the group of rats that received the combination of bromadiolone and cholecalciferol coagulate in the same way as the rats in the group of rats that received the gavage solution containing bromadiolone on the one hand and the rats in the group of rats that received the gavage solution containing cholecalciferol on the other hand. Quick's time for rats treated with a control solution formed from oil (95%, v/v) and DMSO (5%, v/v) is (bar “A”) 12.8 seconds (±2.3). Neither the gavage solution containing bromadiolone in combination with cholecalciferol, nor the gavage solution containing bromadiolone alone, nor the gavage solution containing cholecalciferol induces an increase of Quick's time relative to the control. […]"}, "[2]": {"system": "warfarin-sensitive male OFA-Sprague-Dawley rats", "experiment": "Synergy of difethialone and cholecalciferol on warfarin-sensitive rats, gavage, survival", "assay_type": "in vivo, rat", "conditions": "gavage once a day for 3 days; cholecalciferol alone 7.5 mg/kg; after 2 days of observation", "description": "A group of warfarin-sensitive male OFA-Sprague-Dawley rats (Charles River, L′Arbresles, France), aged 10 weeks and with a body weight between 160 and 180 g, are fed by gavage once a day for 3 consecutive days with a gavage solution containing difethialone (LIPHATECH, France) and cholecalciferol (Sigma-Aldrich, France) in a solvent consisting of 95% (v/v) of oil and 5% (v/v) of DMSO. During this period of gavage, the rats are fed with a conventional solid feed and water in unlimited amounts. The amounts of difethialone and cholecalciferol administered are 125 μg per kilogram of body weight of the rat fed by gavage and 7.5 mg per kilogram of body weight of the rat fed by gavage, respectively. The rats in two control groups, each consisting of OFA-Sprague-Dawley rats, are fed by gavage in the same conditions with gavage solutions containing difethialone alone (125 μg/kg) or cholecalciferol alone (7.5 mg/kg), respectively. The percentage of rats surviving gavage is recorded daily, for 20 days counting from the first day of gavage. The results presented [FIG. 3] show the variation of the percentage of rodents surviving (in %) as a function of time (t, in days) following the first day of gavage. The rats fed by gavage with the difethialone solution (♦) have 100% survival after 20 days of observation. […]"}}, "data": [{"smiles": "C=C1CC[C@H](O)C/C1=C/C=C1\\CCC[C@]2(C)[C@@H]([C@H](C)CCCC(C)C)CC[C@@H]12", "note": "[cholecalciferol]", "values": [{"measurement": "anticoagulant effect (increase of Quick's time relative to the control)", "setting": "[1]; 3 daily gavages, bromadiolone 100 ppm and/or cholecalciferol 7500 ppm solution, 1 mL/kg", "value": "not anticoagulants"}, {"measurement": "average Quick's time (clotting time)", "setting": "[1]; plasma 24 hours after last of 3 daily gavages, 1 mL/kg of solution with bromadiolone 100 ppm and/or cholecalciferol 7500 ppm", "value": 12.4, "unit": "s"}, {"measurement": "percentage of rats surviving", "setting": "[2]", "value": 60, "unit": "%"}]}]}
